Series [1] concerns the target T1, Muscarinic acetylcholine receptor M5 (Homo sapiens) (UniProt P08912).
T1 sequence (whole entry): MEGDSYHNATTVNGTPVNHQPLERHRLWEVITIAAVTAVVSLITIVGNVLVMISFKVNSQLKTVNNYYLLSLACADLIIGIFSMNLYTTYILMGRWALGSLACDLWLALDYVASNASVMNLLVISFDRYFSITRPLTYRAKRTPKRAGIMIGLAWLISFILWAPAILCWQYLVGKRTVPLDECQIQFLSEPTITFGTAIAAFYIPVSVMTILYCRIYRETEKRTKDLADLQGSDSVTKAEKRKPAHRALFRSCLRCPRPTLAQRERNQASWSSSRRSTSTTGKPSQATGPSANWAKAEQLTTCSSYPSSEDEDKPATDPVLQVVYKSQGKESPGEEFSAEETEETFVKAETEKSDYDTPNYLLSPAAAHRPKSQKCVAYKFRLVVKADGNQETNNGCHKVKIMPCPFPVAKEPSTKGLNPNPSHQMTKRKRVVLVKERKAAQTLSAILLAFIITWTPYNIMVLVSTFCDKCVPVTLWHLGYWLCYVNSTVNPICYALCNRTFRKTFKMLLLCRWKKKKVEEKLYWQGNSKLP
As to the kind of experiment: Partial agonist activity at human M5 receptor in CHO cells assessed as calcium mobilization at 30 uM after 60 mins by FLIPR assay. The class given is functional, cell-based.

The test system of series [2] is Cynomolgus monkey. As to the kind of experiment: Induction of salivation in sc dosed cynomolgus monkey. The class given is organism-based, Macaca fascicularis. The conditions noted are these: in vivo.
The target of series [3] is T2, Muscarinic acetylcholine receptor M2 (Homo sapiens) (UniProt P08172).
T2 sequence (whole entry): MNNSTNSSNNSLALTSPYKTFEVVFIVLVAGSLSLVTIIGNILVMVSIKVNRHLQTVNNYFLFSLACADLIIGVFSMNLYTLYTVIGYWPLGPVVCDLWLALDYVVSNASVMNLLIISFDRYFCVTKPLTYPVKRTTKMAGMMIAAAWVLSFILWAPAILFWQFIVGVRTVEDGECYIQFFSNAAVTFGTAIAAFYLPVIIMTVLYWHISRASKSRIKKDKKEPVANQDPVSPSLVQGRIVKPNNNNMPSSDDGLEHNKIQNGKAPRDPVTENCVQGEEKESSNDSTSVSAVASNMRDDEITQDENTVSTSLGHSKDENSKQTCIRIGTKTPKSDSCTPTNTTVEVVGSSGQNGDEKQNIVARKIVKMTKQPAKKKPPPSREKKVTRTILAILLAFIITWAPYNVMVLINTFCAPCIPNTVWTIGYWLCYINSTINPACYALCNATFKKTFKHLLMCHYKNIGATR
As to the kind of experiment: Partial agonist activity at human M2 receptor co-expressed with Galpha16 in CHO cells assessed as calcium mobilization at 30 uM after 60 mins by FLIPR assay. The class given is functional, cell-based.

The test system of series [4] is Rattus norvegicus. As to the kind of experiment: Antipsychotic activity in Sprague-Dawley rats assessed as reversal of methamphetamine-induced hyperlocomotion at 0.6 mg/kg, sc administered 30 mins prior to methamphetamine injection measured for 80 mins from 10 mins after methamphetamine challenge in presence of 0.6 mg/kg, po risperidone. The class given is functional, organism-based.

Series [5] addresses T3, Muscarinic acetylcholine receptor M4 (Homo sapiens, UniProt P08173).
T3 sequence (P08173 whole entry): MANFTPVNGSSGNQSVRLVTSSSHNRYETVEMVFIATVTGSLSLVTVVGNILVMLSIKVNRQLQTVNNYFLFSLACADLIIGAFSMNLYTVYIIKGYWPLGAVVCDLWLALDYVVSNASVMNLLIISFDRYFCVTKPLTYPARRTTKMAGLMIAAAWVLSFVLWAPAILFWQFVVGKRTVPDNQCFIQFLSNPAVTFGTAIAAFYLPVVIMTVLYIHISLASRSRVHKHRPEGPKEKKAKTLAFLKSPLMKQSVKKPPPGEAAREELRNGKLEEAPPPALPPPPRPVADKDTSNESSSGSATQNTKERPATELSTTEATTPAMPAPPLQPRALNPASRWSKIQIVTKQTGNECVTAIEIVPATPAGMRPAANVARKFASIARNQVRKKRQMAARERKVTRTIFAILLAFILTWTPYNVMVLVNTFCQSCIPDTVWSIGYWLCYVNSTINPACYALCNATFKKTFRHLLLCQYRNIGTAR
As to the kind of experiment: (§1) Partial agonist activity at human M4 receptor co-expressed with Galpha16 in CHO cells assessed as calcium mobilization after 60 mins by FLIPR assay. The class given is functional, cell-based. (In general: Calcium assays in cells follow changes in intracellular calcium, usually with a dye or a luminescent sensor.)

In series [6] the target is T4, Muscarinic acetylcholine receptor M4 (Homo sapiens) (UniProt P08173).
T4 sequence (whole entry): T3 sequence (P08173 whole entry)
The description is as §1. The class given is functional, cell-based.

Series [7] has as its system Rattus norvegicus. Kind of series: Potentiation of risperidone-induced catalepsy in Sprague-Dawley rats at 10 mg/kg, sc administered 15 mins after risperidone injection measured after 45 mins. Set-up: dose 10 mg/kg, route subcutaneous. The class given is ADME, organism-based. The conditions noted are these: in vivo, 0.75 h.
In series [8] the target is Muscarinic acetylcholine receptor M3 (Homo sapiens) (UniProt P20309). Kind of series: Partial agonist activity at human M3 receptor in CHO cells assessed as calcium mobilization at 30 uM after 60 mins by FLIPR assay. The class given is functional, cell-based.
In series [9] the test system is Rattus norvegicus. As to the kind of experiment: Antipsychotic activity in Sprague-Dawley rats assessed as reversal of methamphetamine-induced hyperlocomotion at 1 to 10 mg/kg, sc administered 30 mins prior to methamphetamine injection measured for 80 mins from 10 mins after methamphetamine challenge. The class given is functional, organism-based.
Series [10] concerns Cynomolgus monkey. Kind of series: Cardiotoxicity in telemetered cynomolgus monkey assessed as increase in heart rate at 1.5 to 6 mg/kg, sc measured after 1 to 4 hrs by telemetry method. The class given is toxicity, organism-based, Macaca fascicularis. Set-up: route subcutaneous. The conditions noted are these: in vivo.
Series [11] has as its system Cynomolgus monkey. As to the kind of experiment: Induction of drowsiness in sc dosed cynomolgus monkey. The class given is organism-based, Macaca fascicularis. The conditions noted are these: in vivo.
Series [12] deals with Cynomolgus monkey. As to the kind of experiment: Induction of vomiting in sc dosed cynomolgus monkey. The class given is organism-based, Macaca fascicularis. The following applies: in vivo.
For a further series, the system named is Mus musculus. As to the kind of experiment: Induction of salivation in ddY mouse at 10 to 30 mg/kg, sc measured for 30 mins after drug administration. The class given is organism-based. Set-up: dose 10-30 mg/kg, route subcutaneous. The following applies: in vivo, 0.5 h.
The test system of series [13] is Rattus norvegicus. As to the kind of experiment: Antipsychotic activity in Sprague-Dawley rats assessed as inhibition of apomorphine-induced prepulse inhibition deficit at 1 to 10 mg/kg, sc administered 15 mins prior to apomorphine injection measured after 15 mins. The class given is functional, organism-based.
Series [14] relates to Cynomolgus monkey. Kind of series: Induction of miosis in sc dosed cynomolgus monkey. The class given is organism-based, Macaca fascicularis. The following applies: in vivo.
The test system of series [15] is Rattus norvegicus. As to the kind of experiment: Induction of catalepsy in Sprague-Dawley rats at 10 to 30 mg/kg, sc measured after 60 mins. The class given is organism-based. Set-up: dose 10-30 mg/kg, route subcutaneous. The following applies: in vivo, 1 h.
The target in series [16] is Voltage-gated inwardly rectifying potassium channel KCNH2 (Homo sapiens, UniProt Q12809). Kind of series: Inhibition of human ERG assessed as decrease in tail current amplitude measured after 5 mins by whole cell patch clamp technique.
Series [17] addresses Muscarinic acetylcholine receptor M3 (Homo sapiens) (UniProt P20309). Kind of series: Partial agonist activity at human M3 receptor in CHO cells assessed as calcium mobilization at 3 uM after 60 mins by FLIPR assay. The class given is functional, cell-based.
Series [18] concerns Cynomolgus monkey. As to the kind of experiment: Cardiotoxicity in telemetered cynomolgus monkey assessed as prolongation of QTc interval at 1.5 to 6 mg/kg, sc measured after 1 to 4 hrs by telemetry method. The class given is toxicity, organism-based, Macaca fascicularis. The following applies: in vivo. Set-up: route subcutaneous.

pEC50, pIC50: −log10 of the molar value. Active and inactive are the calls of the source. The rule behind the calls is not given here.

Chain of Muscarinic acetylcholine receptor M3 (Homo sapiens) (P20309 whole entry, looked up): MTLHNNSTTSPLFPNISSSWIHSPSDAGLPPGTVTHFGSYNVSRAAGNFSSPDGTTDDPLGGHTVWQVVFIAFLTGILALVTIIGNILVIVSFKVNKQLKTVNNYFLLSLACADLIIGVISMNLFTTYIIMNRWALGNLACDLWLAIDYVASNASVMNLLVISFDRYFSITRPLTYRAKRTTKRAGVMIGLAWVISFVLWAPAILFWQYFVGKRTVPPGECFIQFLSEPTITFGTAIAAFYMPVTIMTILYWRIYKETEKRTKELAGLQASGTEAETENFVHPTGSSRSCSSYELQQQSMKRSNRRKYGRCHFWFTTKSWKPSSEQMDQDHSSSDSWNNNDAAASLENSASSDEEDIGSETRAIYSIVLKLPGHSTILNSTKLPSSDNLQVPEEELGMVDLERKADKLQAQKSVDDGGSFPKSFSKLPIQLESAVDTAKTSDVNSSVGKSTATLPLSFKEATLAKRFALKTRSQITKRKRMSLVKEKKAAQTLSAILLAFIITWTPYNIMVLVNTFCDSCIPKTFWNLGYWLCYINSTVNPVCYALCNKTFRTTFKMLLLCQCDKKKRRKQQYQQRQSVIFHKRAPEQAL
Chain of Voltage-gated inwardly rectifying potassium channel KCNH2 (Q12809 whole entry): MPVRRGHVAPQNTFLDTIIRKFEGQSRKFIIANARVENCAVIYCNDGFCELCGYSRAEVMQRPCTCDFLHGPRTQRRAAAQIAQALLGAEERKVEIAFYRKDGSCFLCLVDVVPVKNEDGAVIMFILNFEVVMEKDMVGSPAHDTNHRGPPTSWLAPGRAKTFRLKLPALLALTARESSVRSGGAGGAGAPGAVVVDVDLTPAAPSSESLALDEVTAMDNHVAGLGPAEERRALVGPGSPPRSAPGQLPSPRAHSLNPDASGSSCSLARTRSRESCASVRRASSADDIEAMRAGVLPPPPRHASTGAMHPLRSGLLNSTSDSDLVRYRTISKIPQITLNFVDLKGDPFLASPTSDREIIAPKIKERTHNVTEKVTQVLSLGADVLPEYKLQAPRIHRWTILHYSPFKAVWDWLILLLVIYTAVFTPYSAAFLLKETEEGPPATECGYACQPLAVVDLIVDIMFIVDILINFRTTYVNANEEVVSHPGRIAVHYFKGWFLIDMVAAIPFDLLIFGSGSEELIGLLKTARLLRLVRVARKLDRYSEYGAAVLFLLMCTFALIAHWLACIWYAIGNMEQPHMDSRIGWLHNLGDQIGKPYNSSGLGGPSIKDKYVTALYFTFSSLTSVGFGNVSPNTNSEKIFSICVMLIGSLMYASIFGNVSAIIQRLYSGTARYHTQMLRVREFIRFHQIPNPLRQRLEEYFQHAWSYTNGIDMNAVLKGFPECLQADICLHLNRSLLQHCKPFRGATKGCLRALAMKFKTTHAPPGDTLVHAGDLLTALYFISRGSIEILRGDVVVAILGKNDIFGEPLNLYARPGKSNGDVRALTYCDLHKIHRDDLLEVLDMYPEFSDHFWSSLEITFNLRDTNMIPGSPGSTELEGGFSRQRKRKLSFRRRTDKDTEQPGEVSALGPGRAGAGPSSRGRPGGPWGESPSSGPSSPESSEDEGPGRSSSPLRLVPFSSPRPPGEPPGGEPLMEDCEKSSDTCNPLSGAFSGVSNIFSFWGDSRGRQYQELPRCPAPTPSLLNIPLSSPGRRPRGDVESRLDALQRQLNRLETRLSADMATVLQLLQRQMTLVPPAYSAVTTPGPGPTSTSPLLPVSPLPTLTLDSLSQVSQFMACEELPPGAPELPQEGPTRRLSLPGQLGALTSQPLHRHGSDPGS

What is called pEC50 is −log10 of the EC50, conventionally taken in molar units. What is called pIC50 is the negative decadic logarithm of the IC50, by convention in mol/L. Take `CCOC(=O)N1[C@@H]2CC[C@H]1C[C@H](CN1CC[C@H](N3C(=O)Cc4ccccc43)C1)C2`: the result in series [1], in series [3] and in series [8] was inactive. Besides, the Activity entry is listed as “Toxic” with Cynomolgus monkey [2]; “Non-toxic” in the series on Rattus norvegicus [7]; “Toxic” with Cynomolgus monkey [10]; “Non-toxic” with Cynomolgus monkey [11]; “Non-toxic” in the series with Cynomolgus monkey [12]; “Non-toxic” in the series with Mus musculus. Besides, the Activity entry in the series on Cynomolgus monkey [14] was “Toxic”; in the series on Rattus norvegicus [15] it was “Non-toxic”; in series [17] it was 7%; with Cynomolgus monkey [18], “Non-toxic”. The inhibition entry with Rattus norvegicus [4], in the series with Rattus norvegicus [9] and in the series with Rattus norvegicus [13] was “Active” each time. The negative logarithm of the EC50 (pEC50) in [5] was 7.54. Also, in [6], the Intrinsic activity was found to be 42%. The pIC50 in series [16] is 5.62.

Values taken from ChEMBL document CHEMBL2331215, “Discovery of novel N-substituted oxindoles as selective m1 and m4 muscarinic acetylcholine receptors partial agonists” (ACS Med Chem Lett, 2013).
